# Test results published in patent US20120015907A1, “Furopyridine compounds and uses thereof” (NOVARTIS AG, priority 2010, published 2012).
# Target: T1, HCV polymerase (Hepatitis C virus genotype 1b, UniProt Q9WMX2)
# T1 construct: (His)6 (C)
# Test: biochemical
# Details: NS5B polymerase IC50 μM, polymerase assay of Biological Example 1
row,SMILES,IC50 [µM]
1,"CNC(=O)c1c(-c2ccc(C)cc2)oc2nc(N(CCCCP(C)(=O)O)S(C)(=O)=O)c(I)cc12 [Example 23.9999, 4-(N-(5-iodo-3-(methylcarbamoyl)-2-p-tolylfuro[2,3-b]pyridin-6-yl)methylsulfonamido)butyl (methyl)phosphinic acid]",0.013
2,"CNC(=O)c1c(-c2ccc(C)cc2)oc2nc(N(CCCCP(C)(=O)O)S(C)(=O)=O)c(C3CC3)cc12 [Example 23.99999, 4-(N-(5-cyclopropyl-3-(methylcarbamoyl)-2-p-tolylfuro[2,3-b]pyridin-6-yl)methylsulfonamido)butyl (methyl)phosphinic acid]",0.006

# Same assay, conditions: polymerase assay of Biological Example 1; read-out: NS5B polymerase IC50
row,SMILES,IC50 [µM]
1,"CNC(=O)c1c(-c2ccc(F)cc2)oc2nc(N(CCc3ccccc3OC)S(C)(=O)=O)c(I)cc12 [Example 18.6, 2-(4-fluorophenyl)-5-iodo-6-(N-(2-methoxyphenethyl)methylsulfonamido)-N-methylfuro[2,3-b]pyridine-3-carboxamide]",0.573
2,"CCc1cc2c(C(=O)NC)c(-c3ccc(F)cc3)oc2nc1N(CCCN(C)S(C)(=O)=O)S(C)(=O)=O [Example 23.3, 5-ethyl-2-(4-fluorophenyl)-N-methyl-6-(N-(3-(N-methylmethylsulfonamido)propyl)methylsulfonamido) furo[2,3-b]pyridine-3-carboxamide]",0.058
3,"CCc1cc2c(C(=O)NC)c(-c3ccc(F)cc3)oc2nc1N(CCCC1=C(O)CCC1=O)S(C)(=O)=O [Example 23.95, 5-ethyl-2-(4-fluorophenyl)-6-(N-(3-(2-hydroxy-5-oxocyclopent-1-enyl)propyl)methylsulfonamido)-N-methylfuro[2,3-b]pyridine-3-carboxamide]",0.029
4,"CNC(=O)c1c(-c2ccc(C)cc2)oc2nc(N(CCC[C@@H](C)C(=O)N[C@@H](C(=O)OC)c3ccccc3)S(C)(=O)=O)c(C3CC3)cc12 [Example 29.99998, (R)-methyl 2-((R)-5-(N-(5-cyclopropyl-3-(methylcarbamoyl)-2-p-tolylfuro[2,3-b]pyridin-6-yl)methylsulfonamido)-2-methylpentanamido)-2-phenylacetate]",0.002
5,"CNC(=O)c1c(-c2ccccc2)oc2nc(N(C)S(C)(=O)=O)c(C3CC3)cc12 [Example 2.8, 5-cyclopropyl-N-methyl-6-(N-methylmethylsulfonamido)-2-phenylfuro[2,3-b]pyridine-3-carboxamide]",0.03
6,"CCOC(=O)CCCCc1cc2c(C(=O)NC)c(-c3ccc(F)cc3)oc2nc1N(C)S(C)(=O)=O [Example 3, Ethyl 5-(2-(4-fluorophenyl)-3-(methylcarbamoyl)-6-(N-methylmethylsulfonamido)furo[2,3-b]pyridin-5-yl)pentanoate]",0.034
7,"CNC(=O)c1c(-c2ccc(F)cc2)oc2nc(N(CC3CCCN(C(=O)OC(C)(C)C)C3)S(C)(=O)=O)c(I)cc12 (stereo not shown) [Example 18.92, tert-butyl 3-((N-(2-(4-fluorophenyl)-5-iodo-3-(methylcarbamoyl)furo[2,3-b]pyridin-6-yl)methylsulfonamido)methyl)piperidine-1-carboxylate]",1.02
8,"CNC(=O)c1c(-c2ccc(F)cc2)oc2nc(N(CCCCC(=O)OC)S(C)(=O)=O)c(I)cc12 [Example 18, 5-{[2-(4-Fluoro-phenyl)-5-iodo-3-methylcarbamoyl-furo[2,3-b]pyridin-6-yl]-methanesulfonyl-amino}-pentanoic acid methyl ester]",0.115
9,"CCc1cc2c(C(=O)NC)c(-c3ccc(F)cc3)oc2nc1N(C(C)C)S(C)(=O)=O [Example 22.993, 5-ethyl-2-(4-fluorophenyl)-6-(N-isopropylmethylsulfonamido)-N-methylfuro[2,3-b]pyridine-3-carboxamide]",1.06
10,"CCc1cc2c(C(=O)NC)c(-c3ccc(F)cc3)oc2nc1N(CCCN1CCN(C(=O)OC(C)(C)C)CC1)S(C)(=O)=O [Example 21.999, tert-butyl 4-(3-(N-(5-ethyl-2-(4-fluorophenyl)-3-(methylcarbamoyl)furo[2,3-b]pyridin-6-yl)methylsulfonamido)propyl)piperazine-1-carboxylate]",0.112
11,"CCc1cc2c(C(=O)NC)c(-c3ccc(F)cc3)oc2nc1N(CCCS(=O)(=O)CC)S(C)(=O)=O [Example 23.992, 5-ethyl-6-(N-(3-(ethylsulfonyl)propyl)methylsulfonamido)-2-(4-fluorophenyl)-N-methylfuro[2,3-b] pyridine-3-carboxamide]",0.067
12,"CNC(=O)c1c(-c2ccc(F)cc2)oc2nc(N(CCO)S(C)(=O)=O)c(I)cc12 [Example 18.1, 2-(4-fluorophenyl)-6-(N-(2-hydroxyethyl)methylsulfonamido)-5-iodo-N-methylfuro[2,3-b]pyridine-3-carboxamide]",0.451
13,"CNC(=O)c1c(-c2ccc(C)cc2)oc2nc(N(CC3CCC(=O)O3)S(C)(=O)=O)c(C3CC3)cc12 (stereo not shown) [Example 29.994, 5-cyclopropyl-N-methyl-6-(N-((5-oxotetrahydrofuran-2-yl)methyl)methylsulfonamido)-2-p-tolylfuro[2,3-b]pyridine-3-carboxamide]",0.006
14,"CCc1cc2c(C(=O)NC)c(-c3ccc(F)cc3)oc2nc1N(CC1CCOCC1)S(C)(=O)=O [Example 21.994, 5-ethyl-2-(4-fluorophenyl)-N-methyl-6-(N-((tetrahydro-2H-pyran-4-yl)methyl)methylsulfonamido)furo[2,3-b]pyridine-3-carboxamide]",0.147
15,"CNC(=O)c1c(-c2ccc(Oc3ccccc3F)cc2)oc2nc(N(CCCCC(=O)O)S(C)(=O)=O)c(C3CC3)cc12 [Example 27.3, 5-(N-(5-cyclopropyl-2-(4-(2-fluorophenoxy)phenyl)-3-(methylcarbamoyl)furo[2,3-b]pyridin-6-yl)methylsulfonamido) pentanoic acid]",0.023
16,"CNC(=O)c1c(-c2ccc(C)cc2)oc2nc(N(C)S(C)(=O)=O)c(CCCO)cc12 [Example 9.2, 5-(3-hydroxypropyl)-N-methyl-6-(N-methylmethylsulfonamido)-2-p-tolylfuro[2,3-b]pyridine-3-carboxamide]",0.082
17,"CCc1cc2c(C(=O)NC)c(-c3ccc(F)cc3)oc2nc1N(CCCCS(=O)(=O)C(F)(F)F)S(C)(=O)=O [Example 23.97, 5-ethyl-2-(4-fiuorophenyl)-N-methyl-6-(N-(4-(trifluoromethylsulfonyl)butyl)methylsulfonamido) furo[2,3-b]pyridine-3-carboxamide]",0.035
18,CNC(=O)c1c(-c2ccc(C)cc2)oc2nc(N(CCC[C@@H](C)C(=O)N[C@@H](CO)Cc3ccccc3)S(C)(=O)=O)c(C3CC3)cc12 [Example 47.1],0.668
19,"CNC(=O)c1c(-c2ccc(F)cc2)oc2nc(N(Cc3cccc(C(N)=O)c3)S(C)(=O)=O)c(I)cc12 [Example 18.8, 6-(N-(3-carbamoylbenzyl)methylsulfonamido)-2-(4-fluorophenyl)-5-iodo-N-methylfuro[2,3-b]pyridine-3-carboxamide]",0.051
20,"CNC(=O)c1c(-c2ccc(C)cc2)oc2nc(N(CCCCC#N)S(C)(=O)=O)c(C3CC3)cc12 [Example 29.6, 6-(N-(4-cyanobutyl)methylsulfonamido)-5-cyclopropyl-N-methyl-2-p-tolylfuro[2,3-b]pyridine-3-carboxamide]",0.002
21,"CCOC(=O)C1(CCCN(c2nc3oc(-c4ccc(C)cc4)c(C(=O)NC)c3cc2C2CC2)S(C)(=O)=O)CCNCC1 [Example 29.999993, ethyl 4-(3-(N-(5-cyclopropyl-3-(methylcarbamoyl)-2-p-tolylfuro[2,3-b]pyridin-6-yl)methylsulfonamido)propyl) piperidine-4-carboxylate]",0.022
22,"CNC(=O)c1c(-c2ccc(F)cc2)oc2nc3c(cc12)C(C)C(O)CCCCN3S(C)(=O)=O (stereo not shown) [Example 38, 2-(4-Fluoro-phenyl)-6-hydroxy-11-methanesulfonyl-5-methyl-6,7,8,9,10,11-hexahydro-5H-1-oxa-11,12-diaza-cyclonona[f]indene-3-carboxylic acid methylamide]",0.509
23,"CCc1cc2c(C(=O)NC)c(-c3ccc(F)cc3)oc2nc1N(CCCS(=O)(=O)N1CCCC1)S(C)(=O)=O [Example 22.91, 5-ethyl-2-(4-fluorophenyl)-N-methyl-6-(N-(3-(pyrrolidin-1-ylsulfonyl)propyl)methylsulfonamido)furo[2,3-b]pyridine-3-carboxamide]",0.034
24,CCc1cc2c(C(=O)NC)c(-c3ccc(F)cc3)oc2nc1N(CCCNS(=O)(=O)c1ccccc1)S(C)(=O)=O [23.6],0.093
25,"CNC(=O)c1c(-c2ccc(C)cc2)oc2nc(N(CCCCCCC(=O)O)S(C)(=O)=O)c(C3CC3)cc12 [Example 29.996, 7-(N-(5-cyclopropyl-3-(methylcarbamoyl)-2-p-tolylfuro[2,3-b]pyridin-6-yl)methylsulfonamido) heptanoic acid]",0.007
26,"CNC(=O)c1c(-c2ccc(C)cc2)oc2nc(N(CCCN)S(C)(=O)=O)c(C3CC3)cc12 [Example 23.999995, 6-(N-(3-aminopropyl)methylsulfonamido)-5-cyclopropyl-N-methyl-2-p-tolylfuro[2,3-b]pyridine-3-carboxamide]",0.014
27,"CCc1cc2c(C(=O)NC)c(-c3ccc(F)cc3)oc2nc1N(CCCN(C)C(=O)c1ccccc1)S(C)(=O)=O [Example 23.998, 5-ethyl-2-(4-fluorophenyl)-N-methyl-6-(N-(3-(N-methylbenzamido)propyl)methylsulfonamido)furo[2,3-b]pyridine-3-carboxamide]",0.184
28,"CNC(=O)c1c(-c2ccc(F)cc2)oc2nc(N(C)S(C)(=O)=O)c(CCC#N)cc12 [Example 14, 5-(2-cyanoethyl)-2-(4-fluorophenyl)-N-methyl-6-(N-methylmethylsulfonamido)furo[2,3-b]pyridine-3-carboxamide]",0.147
29,"CNC(=O)c1c(-c2ccc(C)cc2)oc2nc(N(CCCC3CCCC3C(=O)O)S(C)(=O)=O)c(C3CC3)cc12 (stereo not shown) [Example 29.4, 2-(3-(N-(5-cyclopropyl-3-(methylcarbamoyl)-2-p-tolylfuro[2,3-b]pyridin-6-yl)methylsulfonamido)propyl) cyclopentanecarboxylic acid]",0.003
